Measured values as given in patent US6084130A, “Aryl substituted bicyclic amines as selective dopamine D3 ligands” (Pharmacia & Upjohn Company, priority 1997, dated 2000).

Key:
D3-DOP-CLONE [1] = biological target: T1, D3-DOP-CLONE (Rattus norvegicus, UniProt P19020); assay: Competition binding against [3H]-spiperone, cloned rat D3 receptors expressed in CHO-K1 cells (Table I); set-up: key to Ki (nM): *: indicates compound was inactive; settings: ligand SPI (0.5 nM)
T1 construct: expressed in transfected cells; host or cells: CHO-K1
Description: (§1) Competition binding experiments employed eleven dilutions of test compounds of Formula I competing with [^3 H]-5-(dipropylamino)-5,6-dihydro-4H-imidazo(4,5,1-ij)quinolin-2(1H)-one (R-enantiomer) ("86170") (62 Ci/mmol, 2 nM) and [^3 H]-spiperone ("SPI") (107 Ci/mmol, 0.5 nM) for D2 and D3 binding sites, respectively. (Lahti, R. A., Eur. J. Pharmacol., 202, 289 (1991)) In each experiment, cloned rat receptors expressed in CHO-K1 cells were used. (Chio, C. L., Nature, 343, 266 (1990); and Huff, R. M., Mol. Pharmacol. 45, 51-60 (1993)).

D2-DOP-CLONE [2] = biological target: T2, D2-DOP-CLONE (Rattus norvegicus, UniProt P61169); assay: Competition binding against [3H]-86170, cloned rat D2 receptors expressed in CHO-K1 cells (Table I); set-up: key to Ki (nM): *: indicates compound was inactive; settings: ligand 86170 (2 nM)
T2 construct: expressed in transfected cells; host or cells: CHO-K1
Description: as §1

Dopamine = Dopamine screen; assay type: binding
D2-DOP-CLONE [3] = biological target: T2, D2-DOP-CLONE; assay: Competition binding against [3H]-86170, cloned rat D2 receptors expressed in CHO-K1 cells (Table II); settings: ligand 86170 (2 nM)
Description: as §1, with “As was done for Table I, competition binding” for “Competition binding”, “Formula II” for “Formula I”, “[^3 H]-7-OH-DPAT ("7-OH-DPAT")” for “[^3 H]-spiperone ("SPI")”, “Mol. Pharmacol.,” for “Mol. Pharmacol.”, “51-60 (1993). Ki values were calculated with the Chen-Prushoff equation. The results are shown in Table II for compounds prepared under Scheme 5.” for “51-60 (1993)).”

D3-DOP-CLONE [4] = biological target: T1, D3-DOP-CLONE; assay: Competition binding against [3H]-7-OH-DPAT, cloned rat D3 receptors expressed in CHO-K1 cells (Table II); settings: ligand 7-OH-DPAT (0.5 nM)
Description: as §1, with “As was done for Table I, competition binding” for “Competition binding”, “Formula II” for “Formula I”, “[^3 H]-7-OH-DPAT ("7-OH-DPAT")” for “[^3 H]-spiperone ("SPI")”, “Mol. Pharmacol.,” for “Mol. Pharmacol.”, “51-60 (1993). Ki values were calculated with the Chen-Prushoff equation. The results are shown in Table II for compounds prepared under Scheme 5.” for “51-60 (1993)).”

T1 sequence (P19020 whole entry): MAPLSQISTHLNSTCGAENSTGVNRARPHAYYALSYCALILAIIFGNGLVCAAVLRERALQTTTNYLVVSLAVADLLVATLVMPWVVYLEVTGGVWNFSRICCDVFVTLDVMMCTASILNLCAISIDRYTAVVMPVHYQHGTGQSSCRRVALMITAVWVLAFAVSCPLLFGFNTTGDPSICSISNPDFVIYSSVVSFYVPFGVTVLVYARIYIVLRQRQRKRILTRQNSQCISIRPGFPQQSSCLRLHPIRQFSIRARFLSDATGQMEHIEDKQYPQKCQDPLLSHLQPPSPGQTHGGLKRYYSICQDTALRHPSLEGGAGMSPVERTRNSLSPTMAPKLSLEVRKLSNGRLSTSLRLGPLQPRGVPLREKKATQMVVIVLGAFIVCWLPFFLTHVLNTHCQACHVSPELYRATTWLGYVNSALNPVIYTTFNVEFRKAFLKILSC
T2 sequence (P61169 whole entry): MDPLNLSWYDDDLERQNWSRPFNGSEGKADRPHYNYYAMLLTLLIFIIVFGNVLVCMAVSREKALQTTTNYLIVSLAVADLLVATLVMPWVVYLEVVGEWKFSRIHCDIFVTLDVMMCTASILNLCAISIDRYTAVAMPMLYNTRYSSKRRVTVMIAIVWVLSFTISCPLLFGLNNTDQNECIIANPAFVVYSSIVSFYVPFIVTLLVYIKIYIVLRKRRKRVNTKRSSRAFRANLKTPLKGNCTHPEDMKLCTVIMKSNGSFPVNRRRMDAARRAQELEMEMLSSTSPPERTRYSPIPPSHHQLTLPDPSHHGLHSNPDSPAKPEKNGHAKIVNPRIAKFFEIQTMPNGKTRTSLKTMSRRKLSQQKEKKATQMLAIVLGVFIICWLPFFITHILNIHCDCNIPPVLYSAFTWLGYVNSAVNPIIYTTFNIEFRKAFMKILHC

Row | Ki (D3-DOP-CLONE [1]) | Ki (D2-DOP-CLONE [2]) | SMILES | other results
1 | 32 nM | 1440 nM | CCCN(CCC)[C@@H]1CCc2ccc(CNS(=O)(=O)c3ccc(C#N)cc3)cc2C1 [Example 2, (R)-4-Cyano-N-[[7-(dipropylamino)-5,6,7,8-tetrahydro-2-naphthalenyl]methyl]benzenesulfonamide] | 
2 | 87 nM | 177 nM | CCCN(CCC)[C@@H]1CCc2ccc(CNC(=O)c3ccc(Cl)cc3)cc2C1 [Example 8, (R)-4Chloro-N-[[7-(dipropylamino)-5,6,7,8-tetrahydro-2-naphthalenyl]methyl]benzamide] | 
3 |  | 786 nM | CCCN(CCC)[C@@H]1CCc2ccc(CNS(=O)(=O)c3cccc(C#N)c3)cc2C1 [Example 5, (R)-3-Cyano-N-[[7-(dipropylamino)-5,6,7,8-tetrahydro-2-naphthalenyl]methyl]benzenesulfonamide] | Ki (nM) (D3-DOP-CLONE [1]): *; activity in dopamine screen (Dopamine): Inactive
4 | 12 nM | 206 nM | CCCN(CCC)[C@@H]1CCc2ccc(CNS(=O)(=O)c3ccc(Cl)cc3)cc2C1 [Example 3, (R)-4-Chloro-N-[[7-(dipropylamino)-5,6,7,8-tetrahydro-2-naphthalenyl]methyl]benzenesulfonamide] | 

Further lines, the molecule ahead of its results:

Row | SMILES | Ki (D3-DOP-CLONE [1]) | Ki (D2-DOP-CLONE [2]) | other results
5 | CCCN(CCC)[C@@H]1CCc2ccc(NS(=O)(=O)c3ccc(C#N)cc3)cc2C1 [Example 11, (R)-4-Cyano-N-[7-(dipropylamino)-5,6,7,8-tetrahydro-2-naphthalenyl]benzenesulfonamide] | 195 nM | > 2240 nM | 
6 | CCCN(CCC)[C@@H]1CCc2ccc(NS(=O)(=O)c3ccc(Cl)cc3)cc2C1 [Example 10, (R)-4-Chloro-N-[7-(dipropylamino)-5,6,7,8-tetrahydro-2-naphthalenyl]benzenesulfonamide] | 18 nM | 324 nM | 
7 | CCCN(CCC)[C@@H]1CCc2ccc(CNC(=O)c3ccc(C#N)cc3)cc2C1 [Example 9, (R)-4-Cyano-N-[[7-(dipropylamino)-5,6,7,8-tetrahydro-2-naphthalenyl]methyl]benzamide] |  |  | Ki (nM) (D3-DOP-CLONE [1]): *; Ki (nM) (D2-DOP-CLONE [2]): *
8 | CCCN(CCC)[C@@H]1CCc2ccc(CNS(=O)(=O)c3cn(C)cn3)cc2C1 [Example 6, (R)-N-[[7-(Dipropylamino)-5,6,7,8-tetrahydro-2-naphthalenyl]methyl]1-methyl-1H-imidazole-4-sulfonamide] | 1450 nM | 1680 nM | 
9 | CCCN(CCC)C1CCc2nc(OS(=O)(=O)c3ccc(Cl)cc3)ccc2C1 (centres unmarked) [Compound 53] |  |  | Ki (D2-DOP-CLONE [3]): 184 nM; Ki (D3-DOP-CLONE [4]): 3 nM
10 | CCCNC1CCc2nc(OS(=O)(=O)c3ccc(Cl)cc3)ccc2C1 (centres unmarked) [Compound 52] |  |  | Ki (D2-DOP-CLONE [3]): 357 nM; Ki (D3-DOP-CLONE [4]): 6 nM
11 | CCCN(CCC)[C@@H]1CCc2ccc(CNS(=O)(=O)c3ccc([N+](=O)[O-])cc3)cc2C1 [Example 4, (R)-4-Nitro-N-[[7-(dipropylamino)-5,6,7,8-tetrahydro-2-naphthalenyl]methyl]benzenesulfonamide] | 109 nM | 772 nM | 
